Key:
metabolic syndrome = assay: FS index / neural net model of cardiovascular risk in metabolic syndrome patient populations; format: in vivo, human
Protocol: The FS index of MS comprises the following parameters: Fasting Blood Glucose, Fasting Insulin, HBA1c, BMI, AST, Triglycerides, Glucose Supply-Demand (S/D) index, and in certain cases, Proinsulin. Each parameter was mathematically arranged to increase as MS worsened, and weighted approximately equally in the prediction of MS progression and risk for CV events. […] FS index values were calculated from serial laboratory and clinical data over timeframes ranging between 2 and 10 years.
Neural Net Models and Data Display Methods. […] Unless otherwise stated, standard deviations (z-score) vs. time are presented in the individual and mean population graphics.
For purposes of analysis, clinical and laboratory parameters were converted into modified z-scores as follows: • A mean normal value (described as “mean” in the following) was selected based on review of literature and various published laboratory compendia. The Standard Deviation (SD) of each parameter was set to one half of the normal range. The modified z-score is calculated as follows: z=(Patient value−“mean”)/SD • On the graphs, the z-score is reported as the number of SD.
The FS index considered the following: Fasting Blood Glucose, Fasting Insulin, HBA1c, BMI, AST, Triglycerides, Glucose Supply-Demand (S/D) index, and in some cases Proinsulin. […] Each of these parameters was mathematically arranged to increase as Metabolic Syndrome worsened, and weighted approximately equally in the prediction of Metabolic Syndrome progression and risk for CV events.
The FS index was then applied to well-studied patient populations using a neural net model.
[formula] Where FBG is Fasting Blood Glucose in mg/dl and normal value is 100 mg/dl TG is Triglycerides in mg/dl normal value is <150 HBA1c is hemoglobin A1c in %, normal value is <6% BMI is body mass index as kg/m2 where a normal value is 20 and obese begins above 25 AST is Aspartate Transferase also called SGOT in IU/liter and a normal value is 5-50 FB insulin is fasting Blood insulin concentration in nmol/liter, a normal value is 4.0

[1] = initiation of insulin in T2D patients; duration and intensity dependent; cited from earlier work
[2] = test system: hepatic gluconeogenesis (GNG); design: endogenous glucose output: unit not given here; details: Gastaldelli, euglycemic hyperinsulinemic clamp, plasma insulin 113±6 μU/ml, T2D, cited from earlier work

| Molecule | FS index response to treatment (metabolic syndrome; normal 20-50, 61 T2D on metformin, 100 RYGB, 18 Brake, 33 exenatide, 12 sitagliptin patients) | other parameters of metabolic syndrome (BMI/weight, HBSD, lipids, NAFLD, blood pressure, insulin) (metabolic syndrome; same patient populations as FS index) | weight gain [1] | plasma C5:^2H2O ratio ([2]; basal 0.60±0.02) | endogenous glucose output ([2]; basal 15.2±0.4) |
| --- | --- | --- | --- | --- | --- |
| N[C@@H](CC(=O)N1CCn2c(nnc2C(F)(F)F)C1)Cc1cc(F)c(F)cc1F [Sitagliptin] | beneficial response to the diabetes component of metabolic syndrome | weight slowly increases or stays the same, lipid abnormalities do not resolve and NAFLD abnormalities do not resolve | – | – | – |
| insulin | – | – | 5-10% | 0.25±0.02 | 7.1±0.9 |
